This is an account of results in ChEMBL document CHEMBL4130620, “Disconnecting the Estrogen Receptor Binding Properties and Antimicrobial Properties of Parabens through 3,5-Substitution” (ACS Med Chem Lett, 2018).

The structures appear in SMILES notation. ≈ marks a conversion by molar mass, not a printed value.

The subject of data set [1] is MCF7. It counts as ADME, cell-based. Conditions: human, mcf7, 24 h.
In another data set the target is T1, Estrogen receptor (Homo sapiens, UniProt P03372).
T1 sequence (P03372 whole entry): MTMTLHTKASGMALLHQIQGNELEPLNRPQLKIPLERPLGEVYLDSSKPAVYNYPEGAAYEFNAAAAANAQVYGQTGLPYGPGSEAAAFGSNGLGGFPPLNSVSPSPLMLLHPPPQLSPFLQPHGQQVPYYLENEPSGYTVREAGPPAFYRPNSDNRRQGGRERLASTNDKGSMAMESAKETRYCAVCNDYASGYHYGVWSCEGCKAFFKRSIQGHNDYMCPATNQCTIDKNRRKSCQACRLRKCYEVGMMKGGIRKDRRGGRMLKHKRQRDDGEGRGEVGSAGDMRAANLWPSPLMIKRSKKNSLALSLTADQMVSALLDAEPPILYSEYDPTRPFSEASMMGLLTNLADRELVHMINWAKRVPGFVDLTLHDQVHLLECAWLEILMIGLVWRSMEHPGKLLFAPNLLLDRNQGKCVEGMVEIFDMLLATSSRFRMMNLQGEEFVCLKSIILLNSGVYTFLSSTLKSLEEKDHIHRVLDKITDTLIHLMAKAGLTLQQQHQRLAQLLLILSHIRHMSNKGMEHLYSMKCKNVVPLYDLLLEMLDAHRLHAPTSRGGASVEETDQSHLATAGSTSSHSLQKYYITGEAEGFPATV

A further data set has as its system Staphylococcus aureus. The experiment in a line: microbe, parasite or virus in culture. The conditions noted are these: 155554A, 16 h.
A short description of data set [2]: Solubility of the compound at >512 ug/ml. It counts as physicochemical.
Data set [3] addresses T2, Estrogen receptor alpha (ERalpha) (Homo sapiens, UniProt P03372).
T2 sequence (P03372 whole entry): T1 sequence (P03372 whole entry)
The experiment in a line: Displacement of Fluor.ES2 Green from human ERalpha at 100000 nM by TR-FRET competitive binding assay. The conditions noted are these: probe Fluor.ES2 Green.

For data set [4], the target named is T2, Estrogen receptor alpha (ERalpha). The experiment in a line: Safety index, ratio of IC50 for test compound to IC50 for paraben for displacement of Fluor.ES2 Green from human ERalpha by TR-FRET competitive binding assay. The conditions noted are these: probe Fluor.ES2 Green, read-out: Ratio IC50. On the technique in general: Time-resolved FRET reads energy transfer from a long-lived donor to a nearby acceptor.

Data set [5] deals with MCF7. It counts as toxicity, cell-based. The conditions noted are these: human.
Data set [6] concerns MCF7. It counts as toxicity, cell-based. Conditions: human. This is another data set of the same source.

Description for Staphylococcus aureus: Antibacterial activity against Staphylococcus aureus 155554A incubated for 16 hrs by microdilution assay

What is called IC50 is the point on the concentration scale where inhibition reaches its midpoint. Higher therefore signals a need for much substance. As to `CCCCOC(=O)c1ccc(O)c(I)c1`, the Activity entry in the data set on MCF7 [1] is “Non-Toxic”. The molecule further registered a concentration for half-maximal inhibition (IC50) at Estrogen receptor of 7.98 µM. The same molecule gave an MIC in the data set with Staphylococcus aureus of 199 µM (≈ 63.7 µg/mL).
As usually defined, the inhibition is the percentage by which the read-out fell short of the control. Low readings indicate a response near the control, high ones a response far below the control. On to `CCCCOC(=O)c1cc(C(C)(C)C)c(O)c(C(C)(C)C)c1`, for which, in data set [2], the solubility entry is listed as “Insoluble”. Besides, the Activity entry in the data set with MCF7 [1] was “Non-Toxic”. This molecule displayed an inhibition at 100 µM in data set [3] of 20%. For the same molecule, the selectivity ratio in data set [4] is 20 to 40. The same molecule returned an IC50 against Estrogen receptor of more than 200 µM. The same molecule gave an MIC with Staphylococcus aureus of 834 µM (≈ 256 µg/mL).
On to `CCCCCCCCOC(=O)c1cc(C)c(O)c(C)c1`, for which the Activity entry in the data set on MCF7 [1] is given as “Non-Toxic”. The selectivity ratio in data set [4] was in the range of 20 to 40. The molecule further registered an IC50 against Estrogen receptor of 16.2 µM. This molecule gave an MIC in the data set with Staphylococcus aureus of 213 µM (≈ 59.3 µg/mL).
For `CCCCOC(=O)c1cc([N+](=O)[O-])c(O)c([N+](=O)[O-])c1`, the Activity entry in the data set on MCF7 [1] is on record as “Non-Toxic”. Also, the inhibition at 100 µM in data set [3] was determined as 20%. Further, in data set [4], the selectivity ratio lay within 20 to 40. Further, on Estrogen receptor, the IC50 was more than 200 µM. In the data set with Staphylococcus aureus, the MIC is 1810 µM (≈ 514 µg/mL).
For `CCCCOC(=O)c1cc(C)c(O)c(C)c1`, the solubility result in data set [2] is given as “Insoluble”. Also, in the data set with MCF7 [1], the Activity result is reported as “Non-Toxic”. In addition, the selectivity ratio in data set [4] lay within 20 to 40. At Estrogen receptor, half-maximal inhibition (IC50) required 32.5 µM. The MIC in the data set with Staphylococcus aureus was more than 1040 µM.
On to `CCCCCCCCOC(=O)c1cc([N+](=O)[O-])c(O)c([N+](=O)[O-])c1`, for which the Activity result in the data set on MCF7 [5], with MCF7 [6] and in the data set on MCF7 [1] was “Non-Toxic” each time. Also, the selectivity ratio in data set [4] fell in the range of 20 to 40. At Estrogen receptor, this molecule gave an IC50 of 60.4 µM. Further, the MIC in the data set on Staphylococcus aureus was found to be 47 µM (≈ 16 µg/mL).
Regarding `CCCCOC(=O)c1cc(OC)c(O)c(OC)c1`, in data set [2], the solubility entry is on record as “Insoluble”. Besides, in the data set with MCF7 [1], the Activity entry is “Non-Toxic”. Moreover, the inhibition at 100 µM in data set [3] was found to be 20%. In addition, the selectivity ratio in data set [4] fell in the range of 20 to 40. The molecule further yielded a half-inhibitory concentration (IC50) at Estrogen receptor of more than 200 µM. The molecule further registered an MIC with Staphylococcus aureus of 924 µM (≈ 235 µg/mL).
Take `CCCCOC(=O)c1cc(Br)c(O)c(Br)c1`: the Activity entry with MCF7 [5], with MCF7 [6] and with MCF7 [1] was “Non-Toxic” throughout. Moreover, the selectivity ratio in data set [4] lay within 20 to 40. This molecule also displayed an IC50 at Estrogen receptor of 39.4 µM. This molecule returned an MIC with Staphylococcus aureus of 91 µM (≈ 32 µg/mL).
In the case of `CCCCOC(=O)c1ccc(O)cc1` [BUTYLPARABEN], the Activity entry in the data set on MCF7 [1] is recorded as “Toxic”. This molecule also registered an MIC in the data set on Staphylococcus aureus of 1320 µM (≈ 256 µg/mL).
Regarding `CCCCCCCCOC(=O)c1cc(O)c(O)c(O)c1` [OCTYL_GALLATE], the Activity result with MCF7 [1] is reported as “Non-Toxic”. The selectivity ratio in data set [4] was in the range of 20 to 40. On Estrogen receptor, this molecule registered a concentration for half-maximal inhibition (IC50) of 8.74 µM. The molecule also came in with an MIC against Staphylococcus aureus of 210 µM (≈ 59.3 µg/mL).
Take `CCCCOC(=O)c1cc(O)c(O)c(O)c1` [BUTYL GALLATE]: the Activity entry in the data set on MCF7 [1] was “Non-Toxic”. On Estrogen receptor, half-maximal inhibition (IC50) required 8.97 µM. The MIC against Staphylococcus aureus came out at 2060 µM (≈ 465 µg/mL).
In the case of `CCCCOC(=O)c1cc(I)c(O)c(I)c1`, the Activity entry with MCF7 [5], in the data set with MCF7 [6] and in the data set with MCF7 [1] was “Non-Toxic” each time. Moreover, in data set [4], the selectivity ratio was 20 to 40. Half-maximal inhibition against Estrogen receptor (IC50) was put at 34.6 µM. Besides, the MIC in the data set with Staphylococcus aureus was 36 µM (≈ 16.1 µg/mL).
Turning to `CCCCOC(=O)c1c(F)c(F)c(O)c(F)c1F`, the Activity result with MCF7 [1] was “Non-Toxic”. For the same molecule, the selectivity ratio in data set [4] lay in the range of 20 to 40. For the same molecule, 29.4 µM corresponded to half-maximal inhibition against Estrogen receptor (IC50). In the data set with Staphylococcus aureus, the MIC turned out to be 483 µM (≈ 129 µg/mL).
The corresponding values for `CCCCOC(=O)c1cc(Cl)c(O)c(Cl)c1` are “Non-Toxic”, 20 to 40, 55.3 µM and 245 µM (≈ 64.5 µg/mL).
For the molecule `CCCCOC(=O)c1ccc(O)c(Br)c1`, the Activity result in the data set on MCF7 [1] was “Non-Toxic”. At Estrogen receptor, this molecule showed an IC50 of 8.21 µM. In the data set with Staphylococcus aureus, the MIC was determined as 236 µM (≈ 64.5 µg/mL).
In the case of `CCCCCCCCOC(=O)c1cc(I)c(O)c(I)c1`, the Activity result with MCF7 [5], in the data set on MCF7 [6] and in the data set on MCF7 [1] was “Non-Toxic” throughout. The selectivity ratio in data set [4] lay within 20 to 40. Further, at Estrogen receptor, the half-inhibitory concentration (IC50) stood at 13.2 µM. In the data set on Staphylococcus aureus, this molecule had an MIC of 31.8 µM (≈ 16 µg/mL).
`CC1(C)S[C@@H]2[C@H](NC(=O)Cc3ccccc3)C(=O)N2[C@H]1C(=O)O` [PENICILLIN G] gave an MIC in the data set with Staphylococcus aureus of 0.749 µM (≈ 0.25 µg/mL).
For `CCOC(=O)c1ccc(O)cc1` [ETHYLPARABEN], the Activity result with MCF7 [1] is listed as “Toxic”.
